± gives the expanded uncertainty stated by the source.
Conditions: 101.33 kPa, Liquid; for viscosity: Capillary tube (Ostwald / Ubbelohde) method; for mass density: Vibrating tube method

CCCCC(CC)COP(=O)(O)OCC(CC)CCCC (stereo not given) [bis(2-ethylhexyl) hydrogen phosphate]
Conditions	mass density [kg/m3]	viscosity [mPa·s]
303.15 K	964 ± 1.9	21.22 ± 0.56
313.15 K	957 ± 1.9	13.32 ± 0.41
323.15 K	949.5 ± 1.9	8.559 ± 0.25
333.15 K	942 ± 1.9	5.83 ± 0.16
343.15 K	934.5 ± 1.9	4.089 ± 0.12
